Test systems include UACC-62; SK-MEL-28; UACC-257; EKVX; SNB-19; U-251; OVCAR-8; CAKI-1; Malme-3M; IGROV-1; NCI/ADR-RES; NCI-H23; NCI-H460; SF-539; 786-0; A549; SN12C; HOP-62; HT-29; SNB-75.
What all share (assay): growth of human tumour cells (NCI), 48 h

Each structure is given as a SMILES string.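 Cultured in 96-well plates, cells were exposed to test compound for 48 hours across five concentrations. Here, GI50 denotes the concentration required for 50% inhibition of growth.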 Activity calls are given as the source filed them. Rule as the data show it: active = GI50 up to about 1.1 µM and inactive = higher.

For `COc1ccc(OC)c(C2CCc3nc4nc(N)nc(N)c4cc3C2)c1` (stereo not given), the GI50 is 2.03 µM (inactive) in the assay with UACC-62; 2.4 µM (inactive) in the assay on SK-MEL-28; 2.48 µM (inactive) in the assay on UACC-257; 13.4 µM (inactive) with EKVX; 2.43 µM (inactive) with SNB-19; 1.76 µM (inactive) in the assay on U-251. Also, the GI50 was 2.47 µM (inactive) in the assay with OVCAR-8; 20.8 µM (inactive) in the assay with CAKI-1; 1.92 µM (inactive) in the assay on Malme-3M; 10.2 µM (inactive) in the assay with IGROV-1; > 100 µM (inactive) with NCI/ADR-RES; 18.5 µM (inactive) in the assay on NCI-H23. Moreover, the GI50 in the assay on NCI-H460 is 4.66 µM (inactive); with SF-539, 3.01 µM (inactive); in the assay with 786-0 it was 2.69 µM (inactive); in the assay on A549, 14.7 µM (inactive); in the assay with SN12C it was 1.77 µM (inactive); in the assay with HOP-62 it was 2.13 µM (inactive). In addition, the GI50 was 3.01 µM (inactive) with HT-29 and 1.94 µM (inactive) in the assay with SNB-75.

With `CCOCC(=O)N[C@H]1CCc2cc(OC(=O)COCC)c(OC)c(OC)c2-c2ccc(SC)c(=O)cc21`, the GI50 in the assay with UACC-62 is 0.0102 µM (active); in the assay with SK-MEL-28 it was 0.0143 µM (active); with UACC-257, 0.00902 µM (active); with EKVX, 0.0571 µM (active); in the assay with SNB-19, 0.885 µM (active); in the assay on U-251 it was 0.0275 µM (active). In addition, the GI50 with OVCAR-8 was 0.0307 µM (active); with CAKI-1 it was 0.15 µM (active); in the assay on Malme-3M, 0.0138 µM (active); with IGROV-1, 0.0324 µM (active); in the assay with NCI/ADR-RES it was 1.87 µM (inactive); with NCI-H23 it was 0.0273 µM (active). Further, the GI50 with NCI-H460 is 0.0327 µM (active); with SF-539, 0.0172 µM (active); with 786-0, 0.036 µM (active); in the assay with A549, 0.0355 µM (active); in the assay with SN12C it was 0.0625 µM (active); in the assay on HOP-62 it was 0.0533 µM (active). Besides, the GI50 is 0.0177 µM (active) with HT-29 and 0.0461 µM (active) in the assay on SNB-75.

Take `O=P(O)(Cc1ccccc1)c1ccccc1-c1ccccc1`: the GI50 was > 100 µM (inactive) in the assay on UACC-62; > 100 µM (inactive) in the assay on SK-MEL-28; > 100 µM (inactive) in the assay on UACC-257; 41.9 µM (inactive) in the assay with EKVX; > 100 µM (inactive) with SNB-19; 57.1 µM (inactive) in the assay with U-251. The GI50 in the assay with OVCAR-8, in the assay with CAKI-1, with Malme-3M, in the assay with IGROV-1, with NCI/ADR-RES and in the assay with NCI-H23 was > 100 µM (inactive) throughout. The GI50 in the assay on NCI-H460 is 62.7 µM (inactive); in the assay on SF-539, > 100 µM (inactive); in the assay on 786-0, > 100 µM (inactive); with A549, 56 µM (inactive); with SN12C, > 100 µM (inactive); in the assay with HOP-62, > 100 µM (inactive). Besides, the GI50 in the assay with HT-29 and with SNB-75 was > 100 µM (inactive) each time.

In the case of `CO[C@H]1C=CO[C@@]2(C)Oc3c(C)c(O)c4c(O)c(c(CN5CCN(C)CC5)c(O)c4c3C2=O)NC(=O)/C(C)=C\C=C[C@H](C)[C@H](O)C(C)[C@@H](O)C(C)[C@H](OC(C)=O)[C@@H]1C` (stereo not given in full), the GI50 in the assay on UACC-62 is 34.6 µM (inactive); in the assay on SK-MEL-28, 90.4 µM (inactive); in the assay on UACC-257, 21 µM (inactive); in the assay on EKVX, 68.5 µM (inactive); with SNB-19, > 100 µM (inactive); in the assay on U-251, 32.7 µM (inactive). Besides, the GI50 with OVCAR-8 was 20 µM (inactive); in the assay with CAKI-1 it was > 77.1 µM (inactive); with Malme-3M, 40.6 µM (inactive); in the assay on IGROV-1, 33.8 µM (inactive); in the assay on NCI/ADR-RES, > 100 µM (inactive); with NCI-H23 it was 14.6 µM (inactive). Further, the GI50 was 39.6 µM (inactive) in the assay on NCI-H460; 24.8 µM (inactive) in the assay with SF-539; 21.3 µM (inactive) with 786-0; 39.7 µM (inactive) in the assay with A549; 30.3 µM (inactive) with SN12C; 17.7 µM (inactive) in the assay with HOP-62. Also, the GI50 in the assay on HT-29 was 21.6 µM (inactive); in the assay with SNB-75, 72.9 µM (inactive).

As to `COc1cc2c3c(cc(Cl)nc3c1OC)C(=O)C(=O)N2`, the GI50 is 6.28 µM (inactive) in the assay with UACC-62; 17.1 µM (inactive) in the assay on SK-MEL-28; 8.39 µM (inactive) in the assay with UACC-257; 6.81 µM (inactive) with EKVX; 22.9 µM (inactive) in the assay on SNB-19; 16.5 µM (inactive) in the assay with U-251. For the same compound, the GI50 in the assay with OVCAR-8 was 18.2 µM (inactive); in the assay with CAKI-1, 15.1 µM (inactive); in the assay with Malme-3M, 2.06 µM (inactive); in the assay on IGROV-1, 9.89 µM (inactive); in the assay with NCI/ADR-RES, 22.5 µM (inactive); in the assay on NCI-H23, 16.7 µM (inactive). Further, the GI50 in the assay on NCI-H460 is 20.7 µM (inactive); in the assay with SF-539, 20.2 µM (inactive); in the assay with 786-0, 5.94 µM (inactive); with A549, 19.7 µM (inactive); with SN12C, 8.99 µM (inactive); in the assay with HOP-62, 19.6 µM (inactive). In addition, the GI50 with HT-29 was 22.4 µM (inactive); in the assay with SNB-75 it was 15.7 µM (inactive).

On to `CCOC(=O)C1=C(O)C2C3CC4C2C(O)=C(C(=O)OCC)C2C1C3C42` (stereo not given), for which the GI50 in the assay on UACC-62, in the assay with SK-MEL-28, in the assay with UACC-257, in the assay with EKVX, in the assay on SNB-19 and with U-251 was > 100 µM (inactive) each time. Further, the GI50 with OVCAR-8 is > 100 µM (inactive); in the assay on CAKI-1, > 100 µM (inactive); with Malme-3M, > 100 µM (inactive); in the assay on IGROV-1, > 100 µM (inactive); in the assay with NCI/ADR-RES it was 18.7 µM (inactive); in the assay on NCI-H23 it was > 100 µM (inactive). Further, the GI50 in the assay on NCI-H460, in the assay on SF-539, in the assay with 786-0, in the assay on A549, with SN12C and in the assay on HOP-62 was > 100 µM (inactive) each time. In addition, the GI50 with HT-29 and in the assay with SNB-75 was > 100 µM (inactive) in each case.

Regarding `Oc1ccc2ccccc2c1Cc1c(O)ccc2ccccc12`, the GI50 is 14 µM (inactive) in the assay with UACC-62; 21.6 µM (inactive) with SK-MEL-28; 19.5 µM (inactive) in the assay on UACC-257; 16.2 µM (inactive) in the assay with EKVX; 18.4 µM (inactive) with SNB-19; 15.4 µM (inactive) in the assay with U-251. Also, the GI50 with OVCAR-8 was 15.6 µM (inactive); with CAKI-1 it was 17.1 µM (inactive); in the assay with Malme-3M, 13.2 µM (inactive); with IGROV-1, 4.04 µM (inactive); in the assay with NCI/ADR-RES, 15.2 µM (inactive); with NCI-H23 it was 16.1 µM (inactive). For the same compound, the GI50 is 26.5 µM (inactive) in the assay with NCI-H460; 21.4 µM (inactive) with SF-539; 21.1 µM (inactive) in the assay on 786-0; 18.1 µM (inactive) in the assay on A549; 16.2 µM (inactive) with SN12C; 16.4 µM (inactive) in the assay with HOP-62. Further, the GI50 with HT-29 was 22.1 µM (inactive); with SNB-75, 20.5 µM (inactive).

Take `NCCN/C(=N\c1ccccc1)Nc1ccccc1`: the GI50 in the assay on UACC-62, in the assay on SK-MEL-28, with UACC-257, in the assay with EKVX, in the assay on SNB-19 and in the assay on U-251 was > 100 µM (inactive) each time. Moreover, the GI50 in the assay with OVCAR-8, in the assay on CAKI-1, in the assay with Malme-3M, with IGROV-1, in the assay with NCI/ADR-RES and with NCI-H23 was > 100 µM (inactive) throughout. Besides, the GI50 is > 100 µM (inactive) in the assay on NCI-H460; 70.8 µM (inactive) in the assay on SF-539; > 100 µM (inactive) with 786-0; > 100 µM (inactive) with A549; > 100 µM (inactive) in the assay with SN12C; > 100 µM (inactive) with HOP-62. The GI50 in the assay with HT-29 is > 100 µM (inactive); in the assay with SNB-75, 72.6 µM (inactive).

Take `O=C1c2ccccc2-c2nnc(-c3ccc(Cl)cc3)cc21`: the GI50 with UACC-62, with SK-MEL-28, in the assay with UACC-257, with EKVX, with SNB-19 and in the assay on U-251 was > 10 µM (inactive) in each case. The GI50 in the assay on OVCAR-8, in the assay with CAKI-1, with Malme-3M, with IGROV-1, in the assay on NCI/ADR-RES and in the assay on NCI-H23 was > 10 µM (inactive) throughout. The GI50 in the assay on NCI-H460, in the assay with SF-539, in the assay on 786-0, in the assay on A549, in the assay with SN12C and in the assay with HOP-62 was > 10 µM (inactive) throughout. In addition, the GI50 in the assay on HT-29 and with SNB-75 was > 10 µM (inactive) in each case.

Turning to `C=C1CC(Cn2cc(C)c(=O)[nH]c2=O)(c2ccc(-c3ccccc3)cc2)OC1=O` (stereo not given), the GI50 in the assay with UACC-62 was 1.76 µM (inactive); with SK-MEL-28 it was 1.78 µM (inactive); in the assay with UACC-257 it was 1.44 µM (inactive); in the assay with EKVX, 6.62 µM (inactive); in the assay on SNB-19, 13.8 µM (inactive); in the assay with U-251, 10.6 µM (inactive). Besides, the GI50 was 1.95 µM (inactive) in the assay on OVCAR-8; 1.55 µM (inactive) with CAKI-1; 2.11 µM (inactive) in the assay on Malme-3M; 1.82 µM (inactive) with IGROV-1; 1.33 µM (inactive) with NCI/ADR-RES; 1.74 µM (inactive) in the assay on NCI-H23. For the same compound, the GI50 is 6.95 µM (inactive) with NCI-H460; 2.07 µM (inactive) with SF-539; 0.817 µM (active) in the assay on 786-0; 8.49 µM (inactive) in the assay with A549; 2.54 µM (inactive) in the assay on SN12C; 13.1 µM (inactive) with HOP-62. Moreover, the GI50 with HT-29 was 0.875 µM (active); with SNB-75 it was 7.87 µM (inactive).

The record behind these values is ChEMBL document CHEMBL1201862, “PubChem BioAssay data set” (2004).
